The source of these data is patent publication US20100035926A1, “PYRAZOLE DERIVATIVES AS NON-STEROIDAL GLUCOCORTICOID RECEPTOR LIGANDS” (priority 2006, published 2010).

Where two headings read alike, the source gives them in different places.

The target of assay [1] is T1, GR (Homo sapiens, UniProt P04150).
T1 construct: endogenous in cells; host or cells: A549 (human lung carcinoma, ECACC No. 86012804), stably transfected with reporter plasmids only
T1 sequence (P04150 1-777): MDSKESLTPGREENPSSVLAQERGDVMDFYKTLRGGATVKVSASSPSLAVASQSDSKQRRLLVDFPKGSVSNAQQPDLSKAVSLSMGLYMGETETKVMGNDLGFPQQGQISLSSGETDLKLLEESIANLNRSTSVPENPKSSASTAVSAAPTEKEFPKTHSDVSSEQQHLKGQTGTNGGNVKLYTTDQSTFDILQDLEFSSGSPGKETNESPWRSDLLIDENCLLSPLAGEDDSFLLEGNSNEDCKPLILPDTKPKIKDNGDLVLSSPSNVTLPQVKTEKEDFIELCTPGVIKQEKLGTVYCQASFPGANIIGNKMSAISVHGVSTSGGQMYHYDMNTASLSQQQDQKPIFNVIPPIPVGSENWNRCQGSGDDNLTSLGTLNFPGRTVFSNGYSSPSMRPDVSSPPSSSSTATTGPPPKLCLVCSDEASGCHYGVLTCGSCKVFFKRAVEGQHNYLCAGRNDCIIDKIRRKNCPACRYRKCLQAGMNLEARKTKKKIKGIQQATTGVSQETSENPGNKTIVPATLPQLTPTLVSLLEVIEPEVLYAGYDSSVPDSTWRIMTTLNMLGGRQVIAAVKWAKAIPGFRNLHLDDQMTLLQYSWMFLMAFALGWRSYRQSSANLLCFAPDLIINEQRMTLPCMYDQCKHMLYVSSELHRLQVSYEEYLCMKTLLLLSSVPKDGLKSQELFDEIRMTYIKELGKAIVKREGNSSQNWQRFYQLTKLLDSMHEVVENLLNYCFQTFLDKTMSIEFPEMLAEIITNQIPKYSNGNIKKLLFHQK
Description: GR Agonist Assay - MMTV Assay (A549 MMTV cells, renilla luciferase reporter). It is filed as cell-based. Conditions: 6 h, agonists, read-out: average maximum asymptote in the MMTV agonist assay. On the procedure: Stimulation of the cell line with GR agonists results in intracellular signal transduction and ultimately translocation of GR into the nucleus. This activates the inserted DNA sequence resulting in transcription of the integrated luciferase gene, which is quantified using a light emission. The stably transfected cell line was grown as a monolayer in DMEM supplemented with FCS-HI (10%), Non-essential amino acids (1%), L-Glutamine (2 mM), Pen/Strep (1%) and Geneticin (50 mg/ml).
A 90% confluent T175 flask of A549 MMTV cells was harvested by centrifugation for 5 min at 200 g, resuspended in assay buffer (DMEM supplemented with 10% FCS 2×HI, 2 mM Glutamax, Non essential amino acids and 25 mM HEPES) and diluted to 0.1×10^6/ml. 70 μl of cell solution was dispensed to each well of white Nunc 384-well plates, containing compound at the required concentration. […] The plates were covered to protect the reagents from light, and then incubated at room temperature for approximately 15 mins before reading them on a Viewlux.

For the next assay, the target named is T2, glucocorticoid receptor (Homo sapiens, UniProt P04150).
T2 construct: a partially purified full length glucocorticoid receptor
T2 sequence (P04150 1-777): T1 sequence (P04150 1-777)
Description: Glucocorticoid Receptor Binding Assay (fluorescence polarisation, displacement of Alexa 555 labelled dexamethasone derivative). Particulars: at least once in this assay; read-out: glucocorticoid binding pIC50 (converted). As for the experimental part:
Compounds were solvated and diluted in DMSO, and transferred directly into assay plates. Fluorescent dexamethasone and a partially purified full length glucocorticoid receptor were added to the plates, together with buffer components to stabilise the GR protein and incubated at room temperature for 2 hr in the dark. Binding of each compound was assessed by analysing the displacement of fluorescent ligand by measuring the decrease in fluorescence polarisation signal from the mixture.
In general terms: Polarisation of emitted light reports the rotation of a fluorescent probe.

Assay [2] addresses T1, GR. Put plainly: GR Functional Assay - NFκB Assay (A549 SPAP cells, TNFα stimulated). It is filed as cell-based. Particulars: for Emax: agonists, read-out: average maximum asymptote in the NFkB assay. As for the experimental part:
Stimulation of the cell line with TNFα results in intracellular signal transduction and ultimately translocation of NFκB into the nucleus. This activates the inserted DNA sequence resulting in transcription of the integrated SPAP gene, which is quantified using a calorimetric assay. […] The stably transfected cell line was grown as a monolayer in DMEM supplemented with FCS-HI (10%), Non-essential amino acids (1%), L-Glutamine (2 mM), Pen/Strep (1%) and Geneticin (50 mg/ml).
A 70% confluent T225 flask of A549 SPAP cells was harvested by centrifugation for 5 mins at 200 g, resuspended in assay buffer (DMEM supplemented with 10% FCS 2×HI, 2 mM L-Glutamine, 1% Pen/Strep and Non essential amino acids) and diluted to 0.16×10^6/ml. 60 μl of cell solution was dispensed to each well of clear Nunc 384-well plates, containing compound at the required concentration. […] Plates were equilibrated to room temperature for 1 hr prior to the addition of 25 μl of pNPP buffer (1M Diethanolamine pH 9.8, 0.5 mM MgCl2, 0.28M NaCl, 2 mg/ml pNPP) to each well of assay plates.

Setting [3] is: at least once, examples listed as agonists in NFkB and MMTV assays, read-out: potency pIC50 in the NFKB assay (converted).
Where [4] appears, read: at least once in the NFkB assay, A549 SPAP cells, read-out: pIC50 in the NFkB assay (converted).

Take `CCN(CC(O)(CNC(=O)c1cnn(-c2cccc(F)c2)c1N)C(F)(F)F)C(=O)c1ccccc1` (racemic) [Example 35 (racemic), 5-amino-N-(2-{[ethyl(phenylcarbonyl)amino]methyl}-3,3,3-trifluoro-2-hydroxypropyl)-1-(3-fluorophenyl)-1H-pyrazole-4-carboxamide]: the Emax on GR [1] and on GR [2] (A549 SPAP cells) was at least 40% each time. Further, the IC50 on glucocorticoid receptor was below 1000 nM; at GR [2] (setting [3]), below 316 nM.
On to `Nc1c(C(=O)NCC(O)(CN(CCF)C(=O)c2ncccc2F)C(F)(F)F)cnn1-c1ccc(F)cc1` (racemic) [Example 40 (racemic), N-{2-[({[5-amino-1-(4-fluorophenyl)-1H-pyrazol-4-yl]carbonyl}amino)methyl]-3,3,3-trifluoro-2-hydroxypropyl}-3-fluoro-N-(2-fluoroethyl)-2-pyridinecarboxamide], for which the Emax at GR [1] and at GR [2] (A549 SPAP cells) was at least 40% throughout. Also, the IC50 is below 1000 nM at glucocorticoid receptor and below 316 nM on GR [2] (setting [3]).
`CCN(CC(O)(CNC(=O)c1cnn(-c2ccc(F)cc2)c1N)C(F)(F)F)C(=O)c1ncccc1F` (racemic) [Example 38 (racemic), N-{2-[({[5-amino-1-(4-fluorophenyl)-1H-pyrazol-4-yl]carbonyl}amino)methyl]-3,3,3-trifluoro-2-hydroxypropyl}-N-ethyl-3-fluoro-2-pyridinecarboxamide]: the Emax at GR [1] and at GR [2] (A549 SPAP cells) was at least 40% each time. In addition, the IC50 at glucocorticoid receptor is below 1000 nM; at GR [2] (setting [3]), below 316 nM.
Regarding `CCN(CC(O)(CNC(=O)c1cnn(-c2ccc(Cl)cc2)c1N)C(F)(F)F)C(=O)c1ccccc1` (racemic) [Example 32 (racemic), 5-amino-1-(4-chlorophenyl)-N-(2-{[ethyl(phenylcarbonyl)amino]methyl}-3,3,3-trifluoro-2-hydroxypropyl)-1H-pyrazole-4-carboxamide], the Emax at GR [1] and at GR [2] (A549 SPAP cells) was at least 40% each time. The figures for the IC50 on glucocorticoid receptor and at GR [2] (setting [3]) were below 1000 nM and below 316 nM, respectively.
On to `CCN(CC(O)(CNC(=O)c1cnn(-c2ccccc2)c1N)C(F)(F)F)C(=O)c1ccccc1` (racemic) [Example 43 (racemic), 5-amino-N-(2-{[ethyl(phenylcar-bonyl)amino]methyl}-3,3,3-trifluoro-2-hydroxypropyl)-1-phenyl-1H-pyrazole-4-carboxamide], for which the Emax at GR [1] and on GR [2] (A549 SPAP cells) was at least 40% throughout. The IC50 on glucocorticoid receptor was below 1000 nM; on GR [2] (setting [3]), below 316 nM.
In the case of `CCN(CC(O)(CNC(=O)c1cnn(-c2ccc(F)cc2)c1N)C(F)(F)F)C(=O)c1cccc(Cl)c1` (racemic) [Example 17 (racemic), 5-amino-N-(2-{[[(3-chlorophenyl)car-bonyl](ethyl)amino]methyl}-3,3,3-trifluoro-2-hydroxypropyl)-1-(4-fluorophenyl)-1H-pyrazole-4-carboxamide], the Emax on GR [1] and on GR [2] (A549 SPAP cells) was at least 40% each time. Besides, the IC50 on glucocorticoid receptor is below 1000 nM; at GR [2] (setting [4]), below 1000 nM; at GR [2] (setting [3]), below 316 nM.
Take `CCN(CC(O)(CNC(=O)c1cnn(-c2ccc(F)cc2)c1N)C(F)(F)F)C(=O)c1ccccc1F` (single isomer, unassigned) [Example 4 Enantiomer 2, 5-Amino-N-[2-({ethyl[(2-fluorophenyl)carbonyl]amino}methyl)-3,3,3-trifluoro-2-hydroxypropyl]-1-(4-fluorophenyl)-1H-pyrazole-4-carboxamide]: the Emax on GR [1] and at GR [2] (A549 SPAP cells) was at least 40% each time. Further, the IC50 on glucocorticoid receptor is below 1000 nM; on GR [2] (setting [3]) it was below 316 nM.
`CCN(CC(O)(CNC(=O)c1cnn(-c2ccc(F)cc2)c1N)C(F)(F)F)C(=O)c1ccccc1OC(F)F` (racemic) [Example 12 (racemic), 5-amino-N-(2-{[({2-[(difluoromethyl)oxy]phenyl}carbonyl) (ethyl)amino]methyl}-3,3,3-trifluoro-2-hydroxypropyl)-1-(4-fluorophenyl)-1H-pyrazole-4-carboxamide]: the Emax on GR [1] and on GR [2] (A549 SPAP cells) was at least 40% throughout. Moreover, the IC50 at glucocorticoid receptor was below 1000 nM; at GR [2] (setting [3]), below 316 nM.
For `CCN(CC(O)(CNC(=O)c1cnn(-c2cc(F)cc(F)c2)c1N)C(F)(F)F)C(=O)c1ccccc1` (racemic) [Example 33 (racemic), 5-amino-1-(3,5-difluorophenyl)-N-(2-{[ethyl(phenylcarbonyl)amino]methyl}-3,3,3-trifluoro-2-hydroxypropyl)-1H-pyrazole-4-carboxamide], the Emax on GR [1] and on GR [2] (A549 SPAP cells) was at least 40% each time. Moreover, the IC50 on glucocorticoid receptor was below 1000 nM; at GR [2] (setting [3]) it was below 316 nM.
As to `CCN(CC(O)(CNC(=O)c1cnn(-c2ccc(F)cc2)c1N)C(F)(F)F)C(=O)c1cccc(F)c1Cl` (racemic) [Example 18 (racemic), 5-amino-N-(2-{[[(2-chloro-3-fluorophenyl)car-bonyl](ethyl)amino]methyl}-3,3,3-trifluoro-2-hydroxypropyl)-1-(4-fluorophenyl)-1H-pyrazole-4-carboxamide], the Emax on GR [1] and on GR [2] (A549 SPAP cells) was at least 40% in each case. For the same molecule, the results for the IC50 at glucocorticoid receptor, at GR [2] (setting [4]) and at GR [2] (setting [3]) were below 1000 nM, below 1000 nM and below 316 nM, respectively.
As for `Nc1c(C(=O)NCC(O)(CN(CCF)C(=O)c2ccccc2C(F)(F)F)C(F)(F)F)cnn1-c1ccc(F)cc1` (racemic) [Example 10 (racemic), 5-amino-1-(4-fluorophenyl)-N-{3,3,3-trifluoro-2-[((2-fluoroethyl){[2-(trifluoromethyl)phenyl]carbonyl}amino)methyl]-2-hydroxypropyl}-1H-pyrazole-4-carboxamide], the Emax on GR [1] and at GR [2] (A549 SPAP cells) was at least 40% throughout. Also, the values for the IC50 at glucocorticoid receptor and on GR [2] (setting [3]) were below 1000 nM and below 316 nM, respectively.
Turning to `CC(=O)c1ccccc1C(=O)N(C)CC(O)(CNC(=O)c1cnn(-c2ccc(F)cc2)c1N)C(F)(F)F` (racemic) [Example 27 (racemic), N-(2-{[[(2-acetylphenyl)car-bonyl](methyl)amino]methyl}-3,3,3-trifluoro-2-hydroxypropyl)-5-amino-1-(4-fluorophenyl)-1H-pyrazole-4-carboxamide], the Emax on GR [1] and on GR [2] (A549 SPAP cells) was at least 40% throughout. In addition, the IC50 was below 1000 nM at glucocorticoid receptor, below 1000 nM at GR [2] (setting [4]) and below 316 nM on GR [2] (setting [3]).
